In ChEMBL document CHEMBL1157539, “Thousands of chemical starting points for antimalarial lead identification” (Nature, 2010):

Tested on: Plasmodium falciparum
Test: GSK_TCMDC: Inhibition of Plasmodium falciparum 3D7 in whole erythrocytes, using parasite LDH activity as an index of growth.
Assay type: functional, organism-based
Conditions: Plasmodium falciparum, 3D7

Compound | XC50 [nM]
Cc1ccc2c(N/N=C/c3ccccc3[N+](=O)[O-])cc(C)nc2c1 | 416
CCN(CC)CCN(Cc1ccc(-c2ccc(C(F)(F)F)cc2)cc1)C(=O)Cn1c(CCc2cccc(F)c2F)c(C)c(=O)c2ccccc21 | 942
CC(C)C[C@@H]1C(=O)N[C@H](C2Cc3ccccc3C2)C(=O)N1[C@@H](C(=O)O)c1ccc(F)cc1F | 836
O=C(/C=C/c1ccc(Cl)c(Cl)c1)NCCCCCN1CCC(c2c[nH]c3ccccc23)CC1 | 781
C#CCN(Cc1ccc2[nH]c(N)nc(=O)c2c1)c1ccc(C(=O)N[C@@H](CCC(=O)O)C(=O)O)cc1 | 217
Cc1ccc(C2=NNC3(S2)C(=O)Nc2ccc(C)cc23)cc1 (stereo not given) | 1020
CN(C)CCNC(=O)c1csc(Nc2ccc(Cl)c(Cl)c2)n1 | 225
Cc1ncc([N+](=O)[O-])n1CCOC(=O)NC(NCC1COc2ccccc2O1)C(Cl)(Cl)Cl (stereo not given) | 223
O=C(Nc1ccc(C(F)(F)F)cc1)c1ccc(NCCCN2CCCCCC2)c([N+](=O)[O-])c1 | 315
CC(=O)c1c[nH]c(C(=O)Nc2ccc(-c3cn4ccccc4n3)cc2)c1 | 890
CCCN(CC1CC1)c1ncc(-c2cccc(CNCCC3CCCN3C)c2)cn1 (stereo not given) | 749
CCn1cc(CN2CCCC(C(=O)Nc3ccc(-c4nc5ccccc5[nH]4)cc3)C2)cn1 (stereo not given) | 927
CCOc1cc(N)c2nc3ccc([N+](=O)[O-])cc3cc2c1 | 145
Cc1cccc(CNc2nc(C)cc(N[C@@H](Cc3ccccc3)C(=O)NC3CCCC3)n2)c1 | 653
CSc1ccc2ccccc2c1CCNCCCCNCCc1c(SC)ccc2ccccc12 | 408
CCCCCCCN1CC[C@@H](CCCc2ccnc3ccc(OCCCCN/C(N)=N/O)cc23)[C@@H](CC)C1 | 952
N=C(N)NN=CC(=O)Nc1ccc(Cl)cc1 | 814
O=C1Nc2ccccc2/C1=N/NC(=S)N1CCOCC1 | 910
COc1ccccc1CNc1ccnc(NCCc2cccc(C(F)(F)F)c2)n1 | 925
OCCN1CCN(Cc2ccc(-c3ccc(-c4nc5cc(F)ccc5[nH]4)cc3)cc2)CC1 | 567
CCCC(C)Nc1nc(C)cc(N[C@@H](Cc2ccccc2)C(=O)Nc2ccccc2)n1 (stereo not given in full) | 863
O=c1cc(NCCCNCc2cccc(I)c2)[nH]c2ccccc12 | 1020
CCOc1cc(C(=O)NCCN(CC)c2cccc(C)c2)ccc1-c1nc2cc(Cl)ccc2[nH]1 | 809
COc1ccc2ncc(Cl)c(N3CCC(CCNCc4ccc5c(n4)NC(=O)CS5)CC3)c2c1 | 961
CN(C)c1ccc(CN2CCC(NC(=O)c3ccc(-c4cccc(Cl)c4)s3)CC2)cc1 | 924

Compound | XC50 [nM]
Cc1cc(N(C)CCCN(C)C)nc(Nc2ccc(Cl)cc2)n1 | 1020
CCOC(=O)c1ccc(NC(=O)NCCCC2CCCN(CCCCCNC(=O)/C=C/c3ccc(Cl)c(Cl)c3)C2)cc1 (stereo not given) | 855
CCCCNc1cc(C)nc(NCc2ccccc2)n1 | 975
CC(C)C(NC(=O)c1c(F)cccc1F)C(=O)Nc1ccc(Cc2nc3ccccc3s2)cc1 (stereo not given) | 448
CSc1ccc(NC(=O)Nc2cc(C)nc3ccccc23)cc1Br | 778
O=C(Nc1cccc(OC2CCN(Cc3ccc(F)cc3)CC2)c1)c1ccc(C(F)(F)F)cc1 | 952
FC(F)(F)c1ccc(CNCC2CCN(Cc3ccc4c(c3)OCO4)CC2)cc1 | 1360
N#Cc1cccc(C(O)C2CN(CCC3CCCCC3)CCC2(O)c2ccccc2)c1 (stereo not given) | 129
CCN(CC)C(=S)N/N=C1/C(=O)Nc2c(C)cccc21 | 863
O=C(NOCCOc1ccccc1)c1ccccc1 | 317
CC(=O)c1ccc(-c2ccc(C(=O)NCCCCN3CCC(c4ccc5c(c4O)CCCC5)CC3)cc2)cc1 | 762
CC(Cc1ccc(SCCSc2ccccc2)cc1)NCC(O)c1cccc(Cl)c1 (stereo not given) | 367
CCOc1ccc2c(c1)N(C(=O)C=Cc1ccccc1)C(C)(C)c1ssc(=S)c1-2 | 1150
O=C(/C=C/c1ccc(Cl)c(Cl)c1)NCCCCN1CCCN(C(=O)Nc2ccc(C(F)(F)F)cc2)CC1 | 847
CC(Cl)=CCc1c(C)nc2c(ccc3ccccc32)c1O | 198
CSc1cccc(Nc2nc3ccc(S(=O)(=O)NC(C)C(C)C)cc3n2[C@H](C)C(C)(C)C)c1 (stereo not given in full) | 446
CCOc1cc2ncnc(Nc3ccc(OCc4ccccc4F)c(Cl)c3)c2cc1OCC | 601
COc1ccc(-c2cnc3ccc(NC4CCC(O)CC4)nn23)cn1 (stereo not given) | 715
CC(C)(CNCc1cccc(Oc2ccccc2)c1)c1nc(-c2ccnc(N)n2)c(-c2ccc(Cl)c(O)c2)[nH]1 | 760
COc1c(C2CCN(CCCCNC(=O)c3ccc(-c4ccc(C(=O)C(F)(F)F)cc4)cc3)CC2)ccc2c1CCCC2 | 1100
CC(C)(C)c1ccc(CN2CCC(NC(=O)c3ccc(-c4ccccc4F)s3)CC2)cc1 | 1200
CCCCCN1CCC(NC(=O)c2ccc(C(=O)Nc3ccc(C(C)C)cc3)cc2)C1 (stereo not given) | 954
COc1cc(C(=O)NC2CCC(CN3CCC(c4c[nH]c5ccccc45)CC3)CC2)cc(Cl)n1 (stereo not given) | 688
N#Cc1cccc(/C=C/C(=O)NC2CCC(CCN3CCc4ccc(-c5cnccn5)cc4CC3)CC2)c1 (stereo not given) | 773
OC1CCC(Nc2ccc3ncc(-c4ccc5ccccc5c4)n3n2)CC1 (stereo not given) | 978

Compound | XC50 [nM]
CCN(CCCN1CCCCC1)c1cc(C)nc(Nc2cccc(C(F)(F)F)c2C)n1 | 609
CCCCN(CCCC)Cc1cc(N(C)c2ccc([N+](=O)[O-])cn2)ccc1O | 544
Cc1ccccc1C1CCN(C2CCC(NC(=O)/C=C/c3cc(F)ccc3F)CC2)CC1 (stereo not given) | 1040
Cc1ccc(-c2cccc3c(NC(=O)Nc4ccc5nccc(N6CCN(C)CC6)c5c4)cccc23)cn1 | 352
COc1cccc(CNC(=O)NC2CCN(c3ccnc(Nc4cc(OC)c(OC)c(OC)c4)n3)C2)c1 (stereo not given) | 713
O=C(NC1CCN(CC2(c3ccccc3)CCCC2)CC1)c1n[nH]cc1Cl | 1040
CCN(CC)CCCNc1cc[n+]([O-])c2cc3ccccc3cc12 | 871
COc1cc(C)nc2ccc(NC(=O)COCC(=O)Nc3ccc4nc(C)cc(OC)c4c3)cc12 | 917
CCOc1ccc(-c2nc3cc(-c4nc5cc(N6CCN(C)CC6)ccc5[nH]4)ccc3[nH]2)cc1 | 108
COc1cccc(Nc2nc(C)cc(NC3CCN(Cc4ccccc4)CC3)n2)c1 | 693
COc1ccc(Cn2c(Nc3cccc(C(F)(F)F)c3)nc3cc(C(=O)NC(C)C)cnc32)cc1Cl | 973
CC(Cc1ccc(CN2CCN(Cc3ccccc3)CC2)cc1)NCC(O)c1cccc(C(F)(F)F)c1 (stereo not given) | 893
Cc1ccccc1CNC(=O)Nc1cccc(-c2csc(NC(=N)N)n2)c1 | 700
Cc1cc(N(C)C)nc(Nc2ccc(NC(=O)c3ccccc3C)cc2)n1 | 1130
CCCN(Cc1nnc(-c2ccco2)o1)C(=O)C1CCN(c2ncc(C(F)(F)F)cc2Cl)CC1 | 691
CC(C)CCN1CCC(Oc2ccc(NC(=O)c3ccsc3)cc2Cl)CC1 | 1040
Cc1ccc(O)c(CN2CCCC(COC(c3ccc(F)cc3)c3ccc(F)cc3)C2)c1 (stereo not given) | 715
CCOc1ccc(-c2nc(NC(=O)CS(=O)(=O)c3ccccc3)sc2C)cc1 | 510
COc1ccc2nccc([C@@H](O)CN3CCC(NCc4ccc5c(c4)sc(=O)n5C)CC3)c2c1 | 258
Oc1ccc(Nc2nc(N3CCCC3)c3ccccc3n2)cc1 | 270
CCc1c(C(=O)NC2CCC(N3CCC(c4ccccc4OC)CC3)CC2)[nH]c2ccc(OC)cc12 (stereo not given) | 1110
CC(C)(CNCc1ccc(Cl)c(Cl)c1)c1nc(-c2ccc(Cl)c(O)c2)c(-c2ccncc2)[nH]1 | 757
COc1ccc(/C=C/C(=O)NCCCCCN2CCC(c3c[nH]c4ccccc34)CC2)cc1O | 957
Cc1nc(-c2cccc(Nc3nccc(NCC(O)c4ccccc4C)n3)c2)cs1 (stereo not given) | 890
Cc1cc(NCCc2ccccc2)nc(NC(=N)Nc2cccc(Cl)c2)n1 | 181

Compound | XC50 [nM]
COc1ccc(OCCON)cc1 | 201
Oc1ccccc1CCNC1CCc2ccccc2C1 (stereo not given) | 928
Fc1ccc2[nH]cc(CCNCc3ccc(-c4cccc(-c5nc6ccccc6[nH]5)c4)cc3)c2c1 | 174
CCOC(=O)C1CCN(CCCNC(=O)/C(=C/C=C/c2cc3cc(Cl)c(Cl)cc3[nH]2)OC)CC1 | 1040
O=c1ccc(CNc2nc(NCCc3ccccc3)nc3cc(Cl)ccc23)c[nH]1 | 298
CCCS(=O)(=O)c1nc(S(=O)(=O)c2ccc(Cl)cc2)c(N2CCCCC2)s1 | 1290
O=C(COc1ccccc1Cl)N1CCc2cc3nccc(N4CCN5CCC[C@H]5C4)c3cc21 | 744
CCOC(C(=O)OCC1CCCN1C(C)C)(c1ccccc1)c1ccccc1 (stereo not given) | 763
CC(C)(C)c1ccc(CNCCOc2ccc(Nc3nnc(-c4ccc(-c5ncc[nH]5)cc4)o3)c3ccccc23)cc1 | 135
O=C(Nc1ccccc1O)C1CCN(c2ncnc3cc(-c4ccc(F)cc4)sc23)CC1 | 874
O=C(Nc1ccc(-c2nc3ccccc3[nH]2)cc1)c1ccc(S(=O)(=O)N2CCCCCC2)cc1 | 411
O=C(Nc1cccc(-c2csc(-c3ccccc3)n2)c1)c1cccs1 | 800
O=C(Nc1ccc([N+](=O)[O-])cc1Br)c1cc2ccccc2nc1Cl | 185
CO/C(=C\C=C\c1cc2cc(Cl)c(Cl)cc2[nH]1)C(=O)NCCCN1CCN(c2cccc(OCC(=O)Nc3ccccc3)c2)CC1 | 504
COc1ccc2c(c1)CCCC2C(C)NCC(O)c1cccc(C(F)(F)F)c1 (stereo not given) | 345
CC(=O)Nc1ccc(NC(=O)c2cc(-c3cc(Cl)ccc3O)n[nH]2)cc1 | 176
COc1cc(Nc2nccc(-c3c(-c4cccc(NC(=O)c5c(F)cccc5F)c4)nn4ccccc34)n2)cc(OC)c1OC | 77.3
CC(=O)Nc1ccc(C(=O)Nc2cccc(-c3ccc(-c4nc5cc(F)ccc5[nH]4)s3)c2)cn1 | 233
O=[N+]([O-])c1cccc(-c2ccc(C=NNc3cc(N4CCCC4)nc(N4CCCC4)n3)o2)c1 | 713
Cc1nc2c(=O)sc3ccccc3c2n1Cc1ccccc1 | 881
COCCNCc1cccc(-c2ccc(CN(C(=O)Nc3ccccc3)C3CCN(Cc4ccccc4)CC3)cc2)c1 | 773
CCN(CC)CCn1c(=N)n(CC(=O)c2ccc(-c3ccccc3)cc2)c2ccccc21 | 1140
CCCCCCCNc1cc(C)nc2ccc(OC)cc12 | 671
COc1cc(C(=O)N2CCN(C(C)C)CC2)ccc1CN(C)CCCCN1CCN(c2cccc(Cl)c2Cl)CC1 | 704
Cc1cc(C(=O)CN2C(=O)NC3(CCCc4ccccc43)C2=O)c(C)n1Cc1ccco1 (stereo not given) | 1100
